The text below walks through data of patent publication US20210154119A1, “ASMT EXPRESSION PROMOTER” (Shiseido Company, Ltd., priority 2018, published 2021).

For the assay, the system named is ASMT gene. Kind of assay: ASMT gene expression level in epidermal keratinocytes by quantitative PCR. It counts as cell-based. The protocol: Commercially available normal adult skin-derived keratinocytes (Kurabo) were inoculated into a T75 flask at 5×10^5 cells/flask, and were cultured in a keratinocyte medium (Humedia-KG2, Kurabo) at 37° C. in a 5% CO2 atmosphere until they reached semiconfluency. The resulting cells were used as seed cells. The keratinocytes were collected by trypsinization, and inoculated into a 24-well plate at 2×10^4 cells/well, and cultured in a keratinocyte medium (Humedia-KG2, Kurabo) at 37° C., 5% CO2 atmosphere until they reached confluency.
To the epidermal keratinocytes having reached confluency was added the ectoin sample at an appropriate dilution ratio so that the ectoin concentration in the medium was 1 mM, followed by the continuation of the culture at 37° C. in a 5% CO2 atmosphere. As a control, a medium not containing the ectoin sample was used to carry out the culture.
Ten hours after the addition of ectoin, the medium was removed. Then the cells were lysed and RNA was extracted therefrom using a commercially available RNA extraction reagent (RNeasy Mini Kit, Qiagen).
Using the thus extracted RNA as a template, quantitative PCR was performed with a commercially available quantitative PCR reagent (BrilliantII QRT-PCR kit, Agilent) and a quantitative PCR device (Mx-3005P, Agilent), by which the expression level of the ASMT gene was determined. At the same time, the expression level of the RPLP0 gene whose expression level was almost constant was also determined as an internal standard. Commercially available PCR primer set (Takara Bio Inc.) specific to each gene was used.
To the epidermal keratinocytes cultured in the same manner as in Example 1 was added the ectoin sample at appropriate dilution ratios so that the ectoin concentration in the medium was 0.005 wt %, 0.01 wt %, 0.02 wt %, 0.05 wt %, 0.1 wt %, followed by the continuation of the culture at 37° C. in a 5% CO2 atmosphere.
To the epidermal keratinocytes cultured in the same manner as in Example 1 was added the respective samples at appropriate dilution ratios so that the concentration in the medium was respectively 1 mM (ectoine), 100 μM (glycosyl hesperidin), 0.1% (green tea extract), and 0.1% (oolong tea extract). These concentrations are all normal concentrations to be used in external formulations. After the addition of the samples, the cells were cultured, from which the ASMT expression level was evaluated in the same manner as in Example 1. As a control, a medium not containing any sample was used to carry out the culture.

Take `CC1=N[C@H](C(=O)O)CCN1` [ectoin, (4S)-2-methyl-1,4,5,6-tetrahydropyrimidine-4-carboxylic acid]: where the note is “ectoin 1 mM in medium, 10 hours, normal adult skin-derived keratinocytes, versus medium containing no ectoin (FIG. 1)”, the “ASMT gene expression level relative to control (control set to 1)” value is “very high ASMT expression promoting action”. For the same compound, for the setting “ectoin 0.005-0.1 wt % in medium, 10 hours, keratinocytes (FIG. 2)”, the “Concentration-dependency of ASMT expression promoting action” value was “dependent on the concentration thereof”. For the same compound, the “ASMT gene expression level (ASMT/RPLP0) in comparison with various antioxidants” value (ectoine 1 mM versus glycosyl hesperidin 100 μM, green tea extract 0.1%, oolong tea extract 0.1%, keratinocytes (FIG. 3)) was “higher than that of green tea extract, oolong tea extract, and glycosyl hesperidin”. Besides, the “ASMT gene expression level (ASMT/RPLP0)” value (ectoine 0.02 wt % in medium, 10 hours, keratinocytes, compared with 0.005 wt % and 0.01 wt % (FIG. 2)) was “higher than the cases of lower concentrations of ectoine (0.005 wt %, 0.01 wt %)”.
